The results in this text go back to US10087216B2 (priority 2014, dated 2018).

The test system of the experiment is potassium ion channel current of the DRG neurons. Nature of the experiment: cells. Type of experiment: cell-based, SD rats.

As for `Nc1ccncc1` [4AP, 4-aminopyridine], the “Current recorded after loading” value (5 mM) amounted to 0.9766 nA. Moreover, the inhibition (usually the percentage by which the read-out fell short of the control) at 5000 µM (Rattus norvegicus, DRG neuron, read-out: Current inhibition rate) is 33.8%.
